One test concerns the target Mcl-1 protein (UniProtKB primary accession number: Q07820) (Homo sapiens, UniProt Q07820). In words: Inhibition of Mcl-1 by fluorescence polarisation, Method 1. The class given is binding. The settings on record: read-out: IC50 (M) Mcl-1 FP. The method in brief: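 FP readout of relative binding potency. Mcl-1 5 nM final, fluorescein-labelled ligand 1 nM final; buffer 10 mM HEPES, 150 mM NaCl, 0.05% Tween 20, pH 7.4; 11-pt dilution series, 5% DMSO final.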
For orientation: Fluorescence polarisation rises when a labelled molecule tumbles more slowly, as on binding a larger partner.

The test system of test [1] is H929 multiple myeloma tumour line. In words: In vitro cytotoxicity, Microculture Tetrazolium Assay. Type of test: cell-based. The note with it: Homo sapiens, NCI-H929, 48 h, H929 cells, 48 hours exposure, MTT; read-out: IC50 (μM) MTT H929. As to the method:
The cytotoxicity studies were carried out on the H929 multiple myeloma tumour line.
The cells are distributed onto microplates and exposed to the test compounds for 48 hours.

The mark [2] stands for this setting: fluorescence polarisation test, Method 2 values are underlined in the patent (underlining not visible here).
Where [3] appears, read: fluorescence polarisation, Method 1, or Method 2.

Like-named read-outs stand apart in the source and are kept apart here.

Chain of Mcl-1 protein (Q07820 whole entry): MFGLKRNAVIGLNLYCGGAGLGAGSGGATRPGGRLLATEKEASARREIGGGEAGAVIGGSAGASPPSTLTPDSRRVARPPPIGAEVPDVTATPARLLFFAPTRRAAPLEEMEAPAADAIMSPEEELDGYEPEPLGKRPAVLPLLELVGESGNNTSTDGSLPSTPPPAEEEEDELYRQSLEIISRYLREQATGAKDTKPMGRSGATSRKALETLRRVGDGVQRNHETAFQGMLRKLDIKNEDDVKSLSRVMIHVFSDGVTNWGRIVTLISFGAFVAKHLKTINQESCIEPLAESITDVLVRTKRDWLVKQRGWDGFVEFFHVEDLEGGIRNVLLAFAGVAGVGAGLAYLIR

Turning to `Cc1c(-c2c(-c3ccc(F)o3)sc3ncnc(OC(Cc4ccccc4OCc4cocn4)C(=O)O)c23)ccc(OCCN2CCN(C)CC2)c1Cl` [Example 191, (2R)-2-{[(5Sa)-5-{3-chloro-2-methyl-4-[2-(4-methylpiperazin-1-yl)ethoxy]phenyl}-6-(5-fluorofuran-2-yl)thieno[2,3-d]pyrimidin-4-yl]oxy}-3-[2-(1,3-oxazol-4-ylmethoxy)phenyl]propanoic acid], the results for the concentration for half-maximal inhibition (IC50) (on Mcl-1 protein (setting [2]); in test [1]) were 6.5e-09 M and 0.063 µM, respectively.

As for `CCc1sc2ncnc(OC(Cc3ccccc3)C(=O)O)c2c1-c1ccc(OCCN(C)C)c(Cl)c1C` [Example 407, (2R)-2-[((5Sa)-5-{3-chloro-4-[2-(dimethylamino)ethoxy]-2-methylphenyl}-6-ethylthieno[2,3-d]pyrimidin-4-yl)oxy]-3-phenylpropanoic acid], the IC50 was determined as 1.1e-07 M at Mcl-1 protein (setting [3]) and 7.33 µM in test [1].

As to `CCc1sc2ncnc(OC(Cc3ccccc3)C(=O)O)c2c1-c1ccc(OCCCS(C)(=O)=O)c(Cl)c1C` [Example 406, (2R)-2-[((5Sa)-5-{3-chloro-2-methyl-4-[3-(methylsulfonyl)propoxy]phenyl}-6-ethylthieno[2,3-d]pyrimidin-4-yl)oxy]-3-phenylpropanoic acid], the IC50 came to 3.5e-08 M at Mcl-1 protein (setting [3]) and 21.9 µM in test [1].

For the molecule `Cc1c(-c2c(-c3ccc(F)o3)sc3ncnc(OC(Cc4ccccc4OCCOCCO)C(=O)O)c23)ccc(OCCN2CCN(C)CC2)c1Cl` [Example 195, (2R)-2-{[(5Sa)-5-{3-chloro-2-methyl-4-[2-(4-methylpiperazin-1-yl)ethoxy]phenyl}-6-(5-fluorofuran-2-yl)thieno[2,3-d]pyrimidin-4-yl]oxy}-3-{2-[2-(2-hydroxyethoxy)ethoxy]phenyl}propanoic acid], the 50% inhibitory concentration (IC50) stood at 5.5e-09 M at Mcl-1 protein (setting [2]) and 0.311 µM in test [1].

As to `Cc1c(-c2c(-c3ccc(F)cc3)sc3ncnc(OC(Cc4ccccc4OCc4ccnc(C5CCCC5)n4)C(=O)O)c23)ccc(OCCN2CCN(C)CC2)c1Cl` [Example 28, (2R)-2-{[(5Sa)-5-{3-chloro-2-methyl-4-[2-(4-methylpiperazin-1-yl)ethoxy]phenyl}-6-(4-fluorophenyl)thieno[2,3-d]pyrimidin-4-yl]oxy}-3-{2-[(2-cyclopentylpyrimidin-4-yl)methoxy]phenyl}propanoic acid], the results for the IC50 (at Mcl-1 protein (setting [2]); in test [1]) were 4.5e-09 M and 0.021 µM, respectively.

With `Cc1c(-c2c(-c3ccco3)sc3ncnc(OC(Cc4ccccc4OCc4ccc5ccccc5n4)C(=O)O)c23)ccc(OCCN2CCN(C)CC2)c1Cl` [Example 234, (2R)-2-{[(5Sa)-5-{3-chloro-2-methyl-4-[2-(4-methylpiperazin-1-yl)ethoxy]phenyl}-6-(furan-2-yl)thieno[2,3-d]pyrimidin-4-yl]oxy}-3-[2-(quinolin-2-ylmethoxy)phenyl]propanoic acid], the IC50 on Mcl-1 protein (setting [2]) worked out at 1.1e-08 M; in test [1], 0.135 µM.

Regarding `Cc1c(-c2c(-c3ccc(F)cc3)sc3ncnc(OC(Cc4ccccc4OCc4ccnn4CC(F)(F)F)C(=O)O)c23)ccc(OCCN(C)C)c1Cl` [Example 132, (2R)-2-{[(5Sa)-5-{3-chloro-4-[2-(dimethylamino)ethoxy]-2-methylphenyl}-6-(4-fluorophenyl)thieno[2,3-d]pyrimidin-4-yl]oxy}-3-(2-{[1-(2,2,2-trifluoroethyl)-1H-pyrazol-5-yl]methoxy}phenyl)propanoic acid], the concentration for half-maximal inhibition (IC50) came to 4.8e-09 M at Mcl-1 protein (setting [2]) and 0.102 µM in test [1].

With `COc1cc(-c2nccc(COc3ccccc3CC(Oc3ncnc4sc(-c5ccc(F)cc5)c(-c5ccc(OCCN6CCN(C)CC6)c(Cl)c5C)c34)C(=O)O)n2)ccn1` [Example 735, (2R)-2-{[(5Sa)-5-{3-chloro-2-methyl-4-[2-(4-methylpiperazin-1-yl)ethoxy]phenyl}-6-(4-fluorophenyl)thieno[2,3-d]pyrimidin-4-yl]oxy}-3-(2-{[2-(2-methoxypyridin-4-yl)pyrimidin-4-yl]methoxy}phenyl)propanoic acid], the IC50 was determined as 9.48e-10 M at Mcl-1 protein (setting [3]) and 0.007 µM in test [1].

With `Cc1c(-c2c(-c3ccoc3)sc3ncnc(OC(Cc4ccccc4)C(=O)O)c23)ccc(OCCN2CCN(C)CC2)c1Cl` [Example 509, (2R)-2-{[(5Sa)-5-{3-chloro-2-methyl-4-[2-(4-methylpiperazin-1-yl)ethoxy]phenyl}-6-(furan-3-yl)thieno[2,3-d]pyrimidin-4-yl]oxy}-3-phenylpropanoic acid], the half-inhibitory concentration (IC50) turned out to be 6.2e-08 M on Mcl-1 protein (setting [3]) and 1.46 µM in test [1].

As to `Cc1c(-c2c(-c3ccc(F)cc3)sc3ncnc(OC(Cc4ccccc4OCC(F)(F)F)C(=O)O)c23)ccc(OCC2CCCN2C)c1Cl` (single isomer, unassigned) [Example 658, (2R)-2-{[(5Sa)-5-{3-chloro-2-methyl-4-[((2S or R)-1-methylpyrrolidin-2-yl)methoxy]phenyl}-6-(4-fluorophenyl)thieno[2,3-d]pyrimidin-4-yl]oxy}-3-[2-(2,2,2-trifluoroethoxy)phenyl]propanoic acid], the IC50 is 1.8e-08 M at Mcl-1 protein (setting [3]) and 1.71 µM in test [1].

As to `Cc1c(-c2c(-c3ccc(F)cc3)sc3ncnc(OC(Cc4ccccc4OCc4cncnc4)C(=O)O)c23)ccc(OCCN2CCN(C)CC2)c1Cl` [Example 93, (2R)-2-{[(5Sa)-5-{3-chloro-2-methyl-4-[2-(4-methylpiperazin-1-yl)ethoxy]phenyl}-6-(4-fluorophenyl)thieno[2,3-d]pyrimidin-4-yl]oxy}-3-[2-(pyrimidin-5-ylmethoxy)phenyl]propanoic acid], the 50% inhibitory concentration (IC50) at Mcl-1 protein (setting [2]) was 1.4e-08 M; in test [1], 0.087 µM.

For the molecule `Cc1c(-c2c(-c3ccc(F)cc3)sc3ncnc(OC(Cc4ccccc4OCc4ccnc(-c5ccccc5C(F)(F)F)n4)C(=O)O)c23)ccc(OCCN2CCN(C)CC2)c1Cl` [Example 727, (2R)-2-{[(5Sa)-5-{3-chloro-2-methyl-4-[2-(4-methylpiperazin-1-yl)ethoxy]phenyl}-6-(4-fluorophenyl)thieno[2,3-d]pyrimidin-4-yl]oxy}-3-[2-({2-[2-(trifluoromethyl)phenyl]pyrimidin-4-yl}methoxy)phenyl]propanoic acid], the 50% inhibitory concentration (IC50) came to 1.32e-09 M on Mcl-1 protein (setting [3]) and 0.013 µM in test [1].

On to `Cc1c(-c2c(-c3cccc(F)c3)sc3ncnc(OC(Cc4ccccc4OC(C)C)C(=O)O)c23)ccc(OCCN2CCN(C)CC2)c1Cl` [Example 709, (2R)-2-{[(5Sa)-5-{3-chloro-2-methyl-4-[2-(4-methylpiperazin-1-yl)ethoxy]phenyl}-6-(3-fluorophenyl)thieno[2,3-d]pyrimidin-4-yl]oxy}-3-[2-(propan-2-yloxy)phenyl]propanoic acid], for which the half-inhibitory concentration (IC50) is 3.2e-08 M on Mcl-1 protein (setting [3]) and 0.518 µM in test [1].

For the molecule `Cc1c(-c2c(Br)sc3ncnc(OC(Cc4ccccc4)C(=O)O)c23)ccc(OCCN2CCN(C)CC2)c1Cl` [Example 518, (2R)-2-[(6-bromo-(5Sa)-5-{3-chloro-2-methyl-4-[2-(4-methylpiperazin-1-yl)ethoxy]phenyl}thieno[2,3-d]pyrimidin-4-yl)oxy]-3-phenylpropanoic acid], the figures for the half-inhibitory concentration (IC50) (at Mcl-1 protein (setting [3]); in test [1]) were 3.5e-08 M and 9.18 µM, respectively.

For `CNCCOc1ccc(-c2c(-c3ccco3)sc3ncnc(OC(Cc4ccccc4OC)C(=O)O)c23)c(C)c1Cl` [Example 331, (2R)-2-{[(5Sa)-5-{3-chloro-2-methyl-4-[2-(methylamino)ethoxy]phenyl}-6-(furan-2-yl)thieno[2,3-d]pyrimidin-4-yl]oxy}-3-(2-methoxyphenyl)propanoic acid], the figures for the IC50 (at Mcl-1 protein (setting [2]); in test [1]) were 6e-09 M and 0.394 µM, respectively.

On to `CCc1sc2ncnc(OC(Cc3ccccc3)C(=O)O)c2c1-c1ccc(OCCc2ccncc2)c(Cl)c1C` [Example 397, (2R)-2-[((5Sa)-5-{3-chloro-2-methyl-4-[2-(pyridin-4-yl)ethoxy]phenyl}-6-ethylthieno[2,3-d]pyrimidin-4-yl)oxy]-3-phenylpropanoic acid], for which the concentration for half-maximal inhibition (IC50) at Mcl-1 protein (setting [3]) was 8e-09 M; in test [1], 15.7 µM.

In the case of `COc1ccccc1-c1nccc(COc2ccccc2CC(Oc2ncnc3sc(-c4ccc(OCCc5ccccc5)cc4)c(-c4ccc(OCCN5CCN(C)CC5)c(Cl)c4C)c23)C(=O)O)n1` (single isomer, unassigned) [Example 766], the IC50 at Mcl-1 protein (setting [3]) came to 3.66e-09 M; in test [1], 0.037 µM.

Take `Cc1c(-c2c(-c3ccc(F)cc3)sc3ncnc(OC(Cc4ccccc4OCc4ccnc(OCc5ccncc5)n4)C(=O)O)c23)ccc(OCCN2CCN(C)CC2)c1Cl` [Example 59, (2R)-2-{[(5Sa)-5-{3-chloro-2-methyl-4-[2-(4-methylpiperazin-1-yl)ethoxy]phenyl}-6-(4-fluorophenyl)thieno[2,3-d]pyrimidin-4-yl]oxy}-3-(2-{[2-(pyridin-4-ylmethoxy)pyrimidin-4-yl]methoxy}phenyl)propanoic acid]: the IC50 was determined as 4e-09 M on Mcl-1 protein (setting [2]) and 0.021 µM in test [1].

Regarding `COc1ccccc1CC(Oc1ncnc2sc(-c3cccc(F)c3F)c(-c3ccc(OCCN4CCN(C)CC4)c(Cl)c3C)c12)C(=O)O` [Example 560, (2R)-2-{[(5Sa)-5-{3-chloro-2-methyl-4-[2-(4-methylpiperazin-1-yl)ethoxy]phenyl}-6-(2,3-difluorophenyl)thieno[2,3-d]pyrimidin-4-yl]oxy}-3-(2-methoxyphenyl)propanoic acid], the IC50 at Mcl-1 protein (setting [3]) was 1.1e-08 M; in test [1], 0.128 µM.

`COc1ccccc1CC(Oc1ncnc2sc(-c3ccco3)c(-c3ccc(OC4CCNC4)c(Cl)c3C)c12)C(=O)O` (single isomer, unassigned) [Example 305, (2R)-2-({(5Sa)-5-[3-chloro-2-methyl-4-((3S or R)-pyrrolidin-3-yloxy)phenyl]-6-(furan-2-yl)thieno[2,3-d]pyrimidin-4-yl}oxy)-3-(2-methoxyphenyl) propanoic acid]: the IC50 came to 6.9e-08 M at Mcl-1 protein (setting [2]) and 1.64 µM in test [1].

What is called IC50 is the concentration that gives 50% inhibition.
